Results from US20210030895A1, “RESIN COMPOSITION AND MOLDED ARTICLE” (DIC Corporation, priority 2013, published 2021).
Where “and” joins values, the source holds several entries; their conditions need not be identical. Identical values can stand only once. Entries after “also recorded” stand apart in the source; their conditions may differ. Like-named read-outs stand apart in the source and are kept apart here.

Columns and labels:
Format in all cases: physicochemical
[1] = Eluting test of the material from the material-containing film (ISO10993-10 Annex E, methanol extraction)
Method: In Example 1, the operation was performed in the same manner as in Example 1 except that 100 mg of the near infrared fluorescent material A was used, a material-containing TPU film having a thickness of about 300 μm and having a material concentration of the near infrared fluorescent material A of 0.1% by mass was prepared.
An Eluting test of the obtained material-containing TPU film was performed. The eluting operation of the film was performed as follows according to ISO10993-10AnnexE. 5 g of the material-containing TPU film was cut into a size of 2 cm×2 cm, and then was put into a 300 mL conical flask with 100 mL of methanol, followed by shaking at 25° C. of room temperature for 8 hours. Next, the methanol was separated by filtration once, and the resultant product was extracted two times with the same amount of methanol by using the same film fine piece. The methanol extracted liquid obtained by the total three times of operations was concentrated by an evaporator, and the residues were melted with 5 mL of dichloromethane to obtain a test liquid.
The absorption spectrum and the light emission spectrum of the obtained test liquid were measured. As a result, the absorption and the fluorescent derived from the near infrared fluorescent material A could not be confirmed. […] Since the near infrared fluorescent material A was hardly eluted, a medical implant having high safeness which is molded using the resin composition according to the present invention was obtained.

[2] = Absorption spectrum of material-containing resin film (spectrophotometer UV3600)
Method: TPU pellets (Tecoflex EG85A, manufactured by Lubrizol Corp.) (100 g) and a near infrared fluorescent material A (5 mg) synthesized in Preparation Example 1 were mixed, and the mixture was attached to the pellet surfaces.
Next, the pellets were put into Labo Plastomill, and melt-kneaded (kneading) at a set temperature of 190° C. for 10 minutes. Thereafter, the kneaded material-containing resin was taken out, and made to be a film.
The film was obtained in the following manner. First, the material-containing resin was heated for 5 minutes while being sandwiched between iron plates heated to 200° C., and pressed at […] while the steel plates were cooled. […]

[3] = Emission (fluorescence) spectrum and fluorescence quantum yield of material-containing resin film (Quantaurus-QY C11347)
[4] = Absorption spectrum of material-containing resin film (spectrophotometer UV3600); conditions: PP film, material 10 mg per 100 g PP (Example 2)
[5] = TPU film, material 0.1% by mass, about 300 μm, methanol, 25° C., 8 hours, three extractions
[6] = methanol extract of TPU film, residues in dichloromethane
[7] = TPU film, material 5 mg per 100 g TPU (0.005% by mass), melt-kneaded at 190° C.
[8] = PP film, material 10 mg per 100 g PP (Example 2)

Row | Compound | Presence or absence of material elution [1, 5] | Absorption peak [2] | Fluorescence peak [3] | Quantum yield [3] | Presence or absence of material elution [1] | further results
1 | CCN1/C(=C\C=C2/CCC(/C=C/c3sc4ccc(Cl)cc4[n+]3CC)=C2N(c2ccccc2)c2ccccc2)Sc2ccc(Cl)cc21 [IR-140, reference compound] | eluted; also recorded: Presence | – | – | – | – | Presence or absence of material elution ([1]; TPU film, material 0.1% by mass, about 300 μm, methanol, 25° C., 8 hours, three extractions, listed as Comparative Example 1): elutes; light emission peak wavelength of the fluorescence spectrum in the test liquid of the eluting test [1, 6]: 846 nm; peak wavelength of the absorption spectrum in the test liquid of the eluting test [1, 6]: 812 nm
2 | COc1ccc(-c2cc3c(o2)=CC2=C(C(F)(F)F)c4cc5oc(-c6ccc(OC)cc6)cc5n4[B-](F)(F)[N+]=32)cc1 [near infrared fluorescent material A] | hardly eluted; also recorded: Absence | – | – | – | – | Absorption peak [2, 7]: 730 nm; Fluorescence peak [3, 8]: 810 nm; Quantum yield [3, 8]: 24%; Quantum yield [3, 7]: 26%; Absorption peak [4]: 730 nm
3 | CCCCCCCCOc1ccc(-c2c3c4n(c(-c5ccc(OCCCCCCCC)cc5)c3c3n2[B-](F)(F)[n+]2c(sc5cc(C(C)(C)C)ccc52)C=3C#N)[B-](F)(F)[n+]2c(sc3cc(C(C)(C)C)ccc32)C=4C#N)cc1 [near infrared fluorescent material B] | – | 739 nm and 738 nm and 737 nm and 736 nm | 758 nm and 833 nm and 756 nm and 834 nm and 753 nm and 754 am nm and 751 nm and 825 nm | 36% and 34% and 39% and 46% | not eluted; also recorded: Absence | –
4 | COc1ccc(-c2cc3c(s2)=CC2=C(C(F)(F)F)c4cc5sc(-c6ccc(OC)cc6)cc5n4[B-](F)(F)[N+]=32)cc1 [near infrared fluorescent material D] | – | 737 nm | 765 nm | 17% | not eluted; also recorded: Absence | –
5 | F[B-]1(F)n2c(cc3sc(-c4cccs4)cc32)C(C(F)(F)F)=C2C=c3sc(-c4cccs4)cc3=[N+]21 [near infrared fluorescent material E] | not eluted; also recorded: Absence | – | – | – | – | Absorption peak [2, 7]: 741 nm; Fluorescence peak [3, 7]: 772 nm; Quantum yield [3, 7]: 11%
6 | CCCCCCCCOc1ccc(-c2c3c4n(c(-c5ccc(OCCCCCCCC)cc5)c3c3n2[B-](F)(F)[n+]2c(ccc5cc(C(C)(C)C)ccc52)C=3C#N)[B-](F)(F)[n+]2c(ccc3cc(C(C)(C)C)ccc32)C=4C#N)cc1 [near infrared fluorescent material F] | – | 764 nm and 767 nm | 774 nm and 870 nm | 35% | not eluted; also recorded: Absence | –
7 | CCCCCCCCOc1ccc(-c2c3c4n(c(-c5ccc(OCCCCCCCC)cc5)c3c3n2[B-](c2ccccc2)(c2ccccc2)[n+]2c(C)cc(C)nc2C=3C#N)[B-](c2ccccc2)(c2ccccc2)[n+]2c(C)cc(C)nc2C=4C#N)cc1 [near infrared fluorescent material G] | – | 756 nm | 778 nm and 870 nm | 35% | not eluted; also recorded: Absence | –
8 | CCCCC(CC)COc1ccc(-c2c3c4n(c(-c5ccc(OCC(CC)CCCC)cc5)c3c3n2[B-](c2ccccc2)(c2ccccc2)[n+]2c(oc5ccc(C(C)(C)C)cc52)C=3C#N)[B-](c2ccccc2)(c2ccccc2)[n+]2c(oc3ccc(C(C)(C)C)cc32)C=4C#N)cc1 (stereo not shown) [near infrared fluorescent material H] | – | 744 nm | 787 nm and 865 nm | 36% | not eluted; also recorded: Absence | –
